# Results published in EP1785417A2, “Novel non-psychotropic cannabinoids” (priority 2000, dated 2001).
# How the values were obtained:
# [1] = test system: transient middle cerebral artery occlusion in rats; assay: Transient middle cerebral artery occlusion (MCAo), infarct size evaluation; assay type: in vivo; details: for Mortality rate: 5 mg/kg IV at 2+0 hours; for reduction of infarct size: IV, one week after the ischemic insult
# From the text: Experimental design. The design was a randomized one, performed in a masked fashion as to whether drug or vehicle was being given, and an attempt was made to generate approximately equal numbers of drug- and vehicle-treated animals.
# • a. Male rats (8 /treatment group) 320-380 gr. (Harlan Israel). • b. Halothane (Rhone Poulenc France) • c. Pentobarbitone (Pental Veterinary, CTS Israel). • d. Poly - L - Lysine (Sigma, USA). • e. Silk suture material 3-0 and 4-0. • f. Nylon (Polyamid) suture material 3-0. Four cm pieces were cut and positioned in a solution of 1% Poly - L - Lysine for 1 minute and dried in an oven (60 ° C) for 60 minutes. The tip of each piece was rounded under a flame. • g. Saline (Teva Medical). • h. Blank cremophor ethanol cosolvent (Pharmos). • i. Dexanabinol in cremophor ethanol cosolvent 50 mg/ml. (Both Dexanabinol and its vehicle were diluted in saline prior to drug administration. • j. Analogs PRS-211,092, PRS-211,095, PRS-211,128 PRS-211,132 and PRS-211,220 in cremophor ethanol cosolvent, 50 mg/ml. • k. The analogs were diluted in saline prior to drug administration.
# • a. Surgical details of the MCAo method used for testing dexanabinol analogs, are presented in Belayev, et al., (Belayev, Busto, Weizhao, and Ginsberg, Stroke 26:2313-2319, 1995) which is incorporated herein in its entirety by reference. • b. Two hours after the start of MCAO, the animals were reanesthetized with halothane, the neck wound was re-opened and the nylon thread pulled out of the Internal carotid artery (ICA). The skin wound was then closed with 3-0 silk suture material and the animals allowed to recover from the anesthesia. • c. Three sets of animals were tested. In the first test immediately (2+0 hours) before thread removal the animals were injected IV with either analogs PRS-211,095, PRS-211,128, PRS-211,132, or Dexanabinol (PRS-211,007) each at a dosage of 5 mg/kg. One group of animals was treated with 5ml/kg vehicle alone. In another group, the animals subjected to "sham" operation, the suture was passed into the ICA, as described above, but immediately withdrawn. In the second set dexanabinol, PRS-211,092, PRS-211,095 and PRS-211,220 were used, at 2+0 hours. In the third set dexanabinol, PRS-211,092, PRS-211,095 and PRS-211,220 were administered 1 hour after thread removal (2+1 hours). Laser Doppler Flow (LDF) determined the success of MCAo - a drop of more then 50% in cerebral blood flow was considered as a sign of successful MCAo. Although LDF was a helpful corroborative sign, clinical outcome remained the final inclusion/exclusion criterion, since, with the exception of the PRS-211,220 staircase study, LDF was introduced only after initiation of the study.
# A detailed investigation of neurological performance was carried out on the first, third and the 7th day after the MCAo. Two parameters were examined: posture and the flexion reflex (based on Nokon and Chuang, NeuroReport 9, 1998: 2081-2084). Animals were scored according to their performance:
# One week after the ischemic insult, animals were euthanized with pentobarbitone 100 mg/kg IP. The animals were perfused through the heart with heparinized 4% formaldehyde solution in PBS (pH 7.4). Brains were then removed, and kept in the same solution before preparation for histological evaluation of the brain infarct volume.
# [2] = test system: rats following Closed Head Injury (CHI); assay: Rat model of closed head injury (cerebral edema, NSS); assay type: in vivo; details: for Neurological score 1hr / ΔNSS 24hr / Neurological score 24hr / Water content Left / Water content Right: rats, CHI; for Neurological score 1hr: 1 hr after injury; for Neurological score 24hr: 24 hr after injury; for Water content Left / Water content Right: doses of 5-10 mg/kg
# Method: The cerebroprotective effect of PRS-211 compounds was assessed in a model of head trauma (HT) in rats. Injury was induced in anesthetized rats by a weight-drop device followed by a recovery period of up to 48 hours. This type of trauma produces brain edema (i.e. increase in water content, decrease in specific gravity in the brain), breakdown of the blood brain barrier (BBB) and clinical dysfunction. The clinical status of the rats was evaluated 1, 24 and 48 hours after injury along with measuring the extent of cerebral edema. The neurological deficit, assessed by a set of criteria termed the Neurological Severity Score (NSS), is maximal at 1 hour after the initiation of head trauma. The NSS slowly decreases over time from the initiation of HT, with the gradual spontaneous recovery of the rats.
# The model was described in detail by Shapira et al., Crit. Care Med. 16:258-265, 1988. Rats were subjected to head trauma (HT) by a weight-drop device and surviving rats were followed up after one week. During that period they had free access to food and water, and were kept 2-3 rats to a cage. At any predesignated time (15 min, 1, 4, 24, 48 hrs, etc.) rats were sacrificed. Their brains were then rapidly removed and cortical tissue taken to determine water content, ions and the metabolites of interest at any particular metabolic cascade studied. During the recovery period, the clinical status was evaluated by a set of criteria (NSS).
# Trauma induced a significant decrease in specific gravity (SG) of brain tissue and increase in water content following head injury. Edema developed since more water accumulates in either the extracellular (vasogenic) or intracellular (cytotoxic) spaces. The methods employed to determine edema are based on linear gradient columns of bromobenzene and kerosene (for SG) and for water content on drying the tissue in a desiccated oven. Tissue pieces (20 mg each) were placed on top of the column and the SG calculated from the equilibrium position in the column, using a standard curve.
# The effect of PRS-211 analogs was calculated by the percent edema formation, where 100% was taken as edema in control, non-treated rats. Thus, the reduction in the SG was calculated as follows: SG(sham)-SG(drug)/SG(sham)-SG(cont) × 100 [formula] The increase in water content was calculated as follows: [%H2O(drug-%H2 O(sham)/%H2 O(cont)-%H2 O(sham)] × 100 [formula] All results presented in the table are statistically different (p<0.05) from control, traumatized vehicle treated rats.
smiles,measurement,setting,value
"CCCCCCC(C)(C)c1cc(O)c2c(c1)OC(C)(C)[C@H]1CC=C(Cn3ccnc3)C[C@H]21 (single isomer, unassigned) [211,095-000]",Mortality rate,[1],No mortality
same,reduction of infarct size,[1],60%
same,Behavioral / Neurological outcome,[1]; compared to the other treatment groups,fewer neurological deficits and recovered faster
same,edema formation and BBB disruption,"[2]; given 30 min before, immediately after, or 1 and 2 hours after HT",significantly reduces edema formation and BBB disruption
same,edema and clinical outcome,"[2]; one dose of 5 mg/kg given 1 hour after the impact, measured 24 hours after HT",effectively reduced edema and improved the clinical outcome
same,Neurological score 1hr,[2],11.9 ±0.6
same,ΔNSS 24hr,[2],6.5 ±0.45
same,Neurological score 24hr,[2],5.4 ±0.5
same,Water content Left,[2],82.89 ±0.48
same,Water content Right,[2],79.75 ±0.20
"CCCCCCC(C)(C)c1cc(O)c2c(c1)OC(C)(C)[C@H]1CC=C(CO)C[C@H]21 [211,007-000 HU-211, 1,1 dimethyl heptyl-(3 S,4S)-7-hydroxy-Δ^6-tetrahydrocannabinol, reference compound]",Mortality rate,[1],9%
same,reduction of infarct size,[1],48%
same,Neurological score 1hr,[2],11.7 ±0.7
same,ΔNSS 24hr,[2],5.5 ±0.42
same,Neurological score 24hr,[2],6.3 ±0.6
same,Water content Left,[2],83.09 ±0.51
same,Water content Right,[2],79.37 ±0.30
